Results published in patent publication US20170209402A1, “CARBOXY-CYCLOPROPYL UNDECANOL COMPOUNDS FOR TREATMENT OF LIVER DISEASE AND OTHER MEDICAL DISORDERS” (Esperion Therapeutics, Inc., priority 2014, published 2017).

System: C57BL/6N male mice fed high-fat diet
Assay: Hepatic triglyceride levels in C57BL/6N male mice receiving a high-fat diet
Format: in vivo
Settings: 3 weeks HFD, compound as diet admix 289 mg/kg HFD (~30 mg/kg/day) for final 2 weeks, 4-hour fast, group mean, HFD alone 1.6, NC 0.6
Experimental: An assay was performed to determine the effect of administering Compounds A and B to C57BL/6N male mice receiving a high-fat diet.
C57BL/6N male mice were obtained from Charles River Laboratories (Montreal, QC, Canada) at 11 weeks of age and singly housed on alpha-dri paper bedding on a normal 12 hour, 6 am-6 pm light-dark cycle. Upon arrival, 27 mice were fed D12492 high fat diets (HFD) containing 60% kcal fat while 9 mice were fed D12450K normal chow diet (NC) for 1 week with free access to water. Mice that had been fed D12492 were allocated into three equally distributed treatment arms of 9 mice each at 12 weeks of age based on 4-hour fasted blood glucose and body weight. […]
Following a 4-hour fast, mice were euthanized and a random lobe of liver was flash frozen in liquid nitrogen for subsequent hepatic lipid analysis. […] A 10 μL aliquot of the prepared sample was injected into the HPLC-ELSD system utilizing a Spherisorb® S5W Silica gel 5 μm, 100×4.6 mm ID HPLC column (Waters) running a 99:1 isooctane:tetrahydrofuran (mobile phase A), 2:1 acetone:CH2Cl2 (mobile phase B), 85:15 isopropanol:7.5 mM acetic acid/7.5 mM ethanolamine (mobile phase C) gradient before being detected using evaporative light scattering detection (ELSD) on an SEDEX® 75 detector (Sedere, Inc., Lawrenceville, N.J.). […]

SMILES | Hepatic TG
O=C(O)C1(CCCCCC(O)CCCCCC2(C(=O)O)CC2)CC1 [Compound A, 1,11-bis-(1-carboxy-cyclopropyl)-undecan-6-ol] | 0.6 % w/w
CC(C)(CCCCCC(O)CCCCCC(C)(C)C(=O)O)C(=O)O [Compound B] | 1.1 % w/w
